Reference: patent US8362038B2, “1-isopropyl-2-oxo-1,2-dihydropyridine-3-carboxamide derivatives having 5-HT4 receptor agonistic activity” (Pfizer Inc., priority 2004, dated 2013)
Structures can show the parent of a compound that is named as a salt.

Experiments:
Human 5-HT4(d) = biological target: T1, Human 5-HT4(d) (Homo sapiens, UniProt Q13639); assay: Human 5-HT4 binding ([3H]-GR113808 displacement, SPA); conditions: for Ki: membranes of human 5-HT4(d) transfected HEK293 cells, [3H]-GR113808 0.2 nM
T1 construct: expressed in transfected cells; host or cells: HEK293
Method: The 5-HT4 receptor binding affinities of the compounds of this invention are determined by the following procedures.
Human 5-HT4(d) transfected HEK293 cells were prepared and grown in-house. The collected cells were suspended in 50 mM HEPES (pH 7.4 at 4° C.) supplemented with protease inhibitor cocktail (Boehringer, 1:1000 dilution) and homogenized using a hand held Polytron PT 1200 disruptor set at full power for 30 sec on ice. The homogenates were centrifuged at 40,000×g at 4° C. for 30 min. The pellets were then resuspended in 50 mM HEPES (pH 7.4 at 4° C.) and centrifuged once more in the same manner. The final pellets were resuspended in an appropriate volume of 50 mM HEPES (pH 7.4 at 25° C.), homogenized, aliquoted and stored at −80° C. until use. An aliquot of membrane fractions was used for protein concentration determination using BCA protein assay kit (PIERCE) and ARVOsx plate reader (Wallac).
For the binding experiments, 25 μl of test compounds were incubated with 25 μl of [^3H]-GR113808 (Amersham, final 0.2 nM) and 150 μl of membrane homogenate and WGA-SPA beads (Amersham) suspension solutions (10 μg protein and 1 mg SPA beads/well) for 60 minutes at room temperature. Nonspecific binding was determined by 1 μM GR113808 (Tocris) at the final concentration. Incubation was terminated by centrifugation at 1000 rpm. Receptor-bound radioactivity was quantified by counting with MicroBeta plate counter (Wallac).

Caco-2 permeability = format: in vitro ADME; conditions: human, Caco-2; apical pH 6.5 to basolateral pH 7.4, 10 μM, mean of 2 inserts; read-out: Caco2 Permeability [Papp]
Method: (§1) Caco-2 permeability was measured according to the method described in Shiyin Yee, Pharmaceutical Research, 763 (1997).
(§2) Caco-2 cells were grown on filter supports (Falcon HTS multiwell insert system) for 14 days. Culture medium was removed from both the apical and basolateral compartments and the monolayers were preincubated with pre-warmed 0.3 ml apical buffer and 1.0 ml basolateral buffer for 0.5 hour at 37° C. in a shaker water bath at 50 cycles/min. The apical buffer consisted of Hanks Balanced Salt Solution, 25 mM D-glucose monohydrate, 20 mM MES Biological Buffer, 1.25 mM CaCl2 and 0.5 mM MgCl2 (pH 6.5). The basolateral buffer consisted of Hanks Balanced Salt Solution, 25 mM D-glucose monohydrate, 20 mM HEPES Biological Buffer, 1.25 mM CaCl2 and 0.5 mM MgCl2 (pH 7.4). At the end of the preincubation, the media was removed and test compound solution (10 μM) in buffer was added to the apical compartment. The inserts were moved to wells containing fresh basolateral buffer at 1 hr. Drug concentration in the buffer was measured by LC/MS analysis.
(§3) Flux rate (F, mass/time) was calculated from the slope of cumulative appearance of substrate on the receiver side and apparent permeability coefficient (Papp) was calculated from the following equation. Papp(cm/sec)=(F*VD)/(SA*MD)
(§4) where SA is surface area for transport (0.3 cm^2), VD is the donor volume (0.3 ml), MD is the total amount of drug on the donor side at t=0. All data represent the mean of 2 inserts. Monolayer integrity was determined by Lucifer Yellow transport.

Caco-2 cells = assay: Caco-2 permeability; format: in vitro ADME
Method: as §1, §2, §3, §4

T1 sequence (Q13639 1-360 isoform Q13639-3): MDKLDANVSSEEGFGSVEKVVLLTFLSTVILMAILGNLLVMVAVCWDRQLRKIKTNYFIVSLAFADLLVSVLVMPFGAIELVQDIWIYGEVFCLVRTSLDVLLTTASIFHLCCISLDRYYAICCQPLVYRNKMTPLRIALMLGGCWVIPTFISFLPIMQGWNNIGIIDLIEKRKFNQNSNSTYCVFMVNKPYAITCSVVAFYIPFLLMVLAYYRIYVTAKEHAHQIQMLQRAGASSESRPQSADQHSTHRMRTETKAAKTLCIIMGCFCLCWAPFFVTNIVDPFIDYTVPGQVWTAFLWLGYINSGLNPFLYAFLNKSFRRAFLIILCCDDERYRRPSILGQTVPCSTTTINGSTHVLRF

Row | melting point | Compound | further results
1 | 133 °C (dec.) | Cc1c(F)cc(C(=O)NCC2CCN(CC3(O)CCOCC3)CC2)c(=O)n1C(C)C [Example 5, 5-Fluoro-N-({1-[(4-hydroxytetrahydro-2H-pyran-4-yl)methyl]piperidin-4-yl}methyl)-1-isopropyl-6-methyl-2-oxo-1,2-dihydropyridine-3-carboxamide] | –
2 | 205 °C (dec.) | Cc1c(Br)cc(C(=O)NCC2CCN(CC3(O)CCOCC3)CC2)c(=O)n1C(C)C (as salt: salt) [Example 4, 5-Bromo-N-({1-[(4-hydroxytetrahydro-2H-pyran-4-yl)methyl]piperidin-4-yl}methyl)-1-isopropyl-6-methyl-2-oxo-1,2-dihydropyridine-3-carboxamide] | –
3 | 168 °C (dec.) | Cc1c(Cl)cc(C(=O)NCC2CCN(CC3CCCCC3)CC2)c(=O)n1C(C)C [Example 6, 5-Chloro-N-{[1-(cyclohexylmethyl)piperidin-4-yl]methyl}-1-isopropyl-6-methyl-2-oxo-1,2-dihydropyridine-3-carboxamide] | –
4 | 187 °C (dec.) | Cc1c(Cl)cc(C(=O)NCC2CCN(CC3(O)CCCCC3)CC2)c(=O)n1C(C)C [Example 7, 5-Chloro-N-({1-[(1-Hydroxycyclohexyl)Methyl]Piperidin-4-Yl}Methyl)-1-Isopropyl-6-Methyl-2-Oxo-1,2-Dihydropyridine-3-Carboxamide] | –
5 | 178 °C (dec.) | Cc1cc(C(=O)NCC2CCN(CC3(O)CCOCC3)CC2)c(=O)n(C(C)C)c1C (as salt: salt) [Example 3, N-({1-[(4-Hydroxytetrahydro-2H-pyran-4-yl)methyl]piperidin-4-yl}methyl)-1-isopropyl-5,6-dimethyl-2-oxo-1,2-dihydropyridine-3-carboxamide] | –

Continued, compound first:

Row | Compound | melting point | further results
6 | Cc1c(Cl)cc(C(=O)NCC2CCN(CC3(O)CCOCC3)CC2)c(=O)n1C(C)C [Example 1, 5-Chloro-N-({1-[(4-hydroxytetrahydro-2H-pyran-4-yl)methyl]piperidin-4-yl}methyl)-1-isopropyl-6-methyl-2-oxo-1,2-dihydropyridine-3-carboxamide] | – | Ki (Human 5-HT4(d)): 10.9 nM; Papp A→B at 10 μM (Caco-2 permeability): 5.3 ×10⁻⁶ cm/s
7 | CCCCN1CCC(CNC(=O)c2cc(Cl)c(N)n(C)c2=O)CC1 [Compound A] | – | affinity / binding activity to 5-HT4 receptor (in words) (Human 5-HT4(d)): weak affinity; Ki (Human 5-HT4(d)): > 500 nM; Papp A→B at 10 μM (Caco-2 permeability): 0.2 ×10⁻⁶ cm/s; permeability against caco2 membrane (in words) (Caco-2 cells): low permeability
8 | CCc1c(Cl)cc(C(=O)NCC2CCN(CC3(O)CCOCC3)CC2)c(=O)n1C(C)C (as salt: salt) [Example 2, 5-Chloro-6-ethyl-N-({1-[(4-hydroxytetrahydro-2H-pyran-4-yl)methyl]piperidin-4-yl}methyl)-1-isopropyl-2-oxo-1,2-dihydropyridine-3-carboxamide] | 123 °C (dec.) | –
9 | Cc1c(Cl)cc(C(=O)NCC2CCN(CC3(O)CCOCC3)CC2)c(=O)n1C(C)C (as salt: hydrochloride) [Example 1, 5-Chloro-N-({1-[(4-hydroxytetrahydro-2H-pyran-4-yl)methyl]piperidin-4-yl}methyl)-1-isopropyl-6-methyl-2-oxo-1,2-dihydropyridine-3-carboxamide] | 283 °C (dec.) | –
